Values joined by “and” are separate entries in the source; they are usually repeats but may differ in a detail not shown here. Equal values may be shown once.
What was measured:
[1] = 101 kPa, Liquid; for speed of sound: Pulse-echo method
[2] = refractive index (Na D-line) (dimensionless); settings: 101.33 kPa, Liquid, Standard Abbe refractometry
[3] = refractive index (Na D-line) (dimensionless); xn = mol fraction of the nth substance listed; settings: 101 kPa, Liquid, Standard Abbe refractometry
[4] = xn = mol fraction of the nth substance listed; settings: 101 kPa, Liquid; for speed of sound: Pulse-echo method

NCCO [2-aminoethan-1-ol]
Settings	mass density, [1] [kg/m3]	refractive index, [2]	speed of sound, [1] [m/s]	viscosity, [1] [mPa·s]
293.15 K	1016.65	1.4525	1735.9	24.61
303.15 K	1008.74	1.4488	1703.7	14.96
313.15 K	1000.77	1.4449	1671.2	9.839
323.15 K	992.75	1.4417	1638.8	6.902

CN1CCCC1=O [N-methylpyrrolidone]
Settings	mass density, [1] [kg/m3]	refractive index, [2]	speed of sound, [1] [m/s]	viscosity, [1] [mPa·s]
293.15 K	1032.87	1.4706 and 1.4691	1565.3	1.858
303.15 K	1023.95	1.4664 and 1.4647	1526.5	1.553
313.15 K	1015.03	1.4621 and 1.4603	1487.8	1.324
323.15 K	1006.1	1.4576 and 1.4559	1450.2	1.146

CN1CCCC1=O [N-methylpyrrolidone] + NCCO
x1 = 1
Settings	mass density, [4] [kg/m3]	refractive index, [3]	speed of sound, [4] [m/s]	viscosity, [4] [mPa·s]
293.15 K	1032.87	1.4691	1565.3	1.858
303.15 K	1023.95	1.4647	1526.5	1.553
313.15 K	1015.03	1.4603	1487.8	1.324
323.15 K	1006.1	1.4559	1450.2	1.146

CCO [ethanol]
Settings	mass density, [1] [kg/m3]	refractive index, [2]	speed of sound, [1] [m/s]	viscosity, [1] [mPa·s]
293.15 K	789.54	1.3616	1162.3	1.116
303.15 K	780.94	1.3574	1128.9	0.9502
313.15 K	772.2	1.3532	1095.4	0.7899
323.15 K	763.29	1.3493	1071.9	0.6304

CCO [ethanol] + CN1CCCC1=O
x2 = 0
Settings	mass density, [4] [kg/m3]	refractive index, [3]	speed of sound, [4] [m/s]	viscosity, [4] [mPa·s]
293.15 K	789.54	1.3616	1162.3	1.116
303.15 K	780.94	1.3574	1128.9	0.9502
313.15 K	772.2	1.3532	1095.4	0.7899
323.15 K	763.29	1.3493	1071.9	0.6304
